Data published in publication PMC6199744, “Development of Chemical Proteomics for the Folateome and Analysis of the Kinetoplastid Folateome” (ACS Infectious Diseases, 2018).
Read-outs that look alike come from different tables or passages of the source.

Columns and labels:
Assay type in all cases: binding
[1] = biological target: T1, HeLa cell extract proteins (Homo sapiens, UniProt O00408)
T1 construct: endogenous in cells; host or cells: HeLa cell extract

[2] = biological target: T2, HeLa cell extract proteins (Homo sapiens, UniProt O60884)
T2 construct: endogenous in cells; host or cells: HeLa cell extract

[3] = biological target: T3, HeLa cell extract proteins (Homo sapiens, UniProt O75947)
T3 construct: endogenous in cells; host or cells: HeLa cell extract

[4] = biological target: T4, HeLa cell extract proteins (Homo sapiens, UniProt P07195)
T4 construct: endogenous in cells; host or cells: HeLa cell extract

[5] = biological target: T5, HeLa cell extract proteins (Homo sapiens, UniProt P15104)
T5 construct: endogenous in cells; host or cells: HeLa cell extract

[6] = biological target: T6, HeLa cell extract proteins (Homo sapiens, UniProt P37837)
T6 construct: endogenous in cells; host or cells: HeLa cell extract
T6 sequence (P37837 1-337): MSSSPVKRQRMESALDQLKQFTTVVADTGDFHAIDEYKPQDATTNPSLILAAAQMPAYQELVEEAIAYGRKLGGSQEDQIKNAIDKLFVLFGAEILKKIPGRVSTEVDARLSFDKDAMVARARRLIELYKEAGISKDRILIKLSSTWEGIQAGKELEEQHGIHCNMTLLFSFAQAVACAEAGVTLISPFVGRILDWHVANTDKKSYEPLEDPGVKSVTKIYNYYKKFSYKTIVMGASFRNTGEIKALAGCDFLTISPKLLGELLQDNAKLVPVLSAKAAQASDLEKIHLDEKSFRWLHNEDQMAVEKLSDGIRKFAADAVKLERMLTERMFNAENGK

[7] = biological target: T7, HeLa cell extract proteins (Homo sapiens, UniProt P55010)
T7 construct: endogenous in cells; host or cells: HeLa cell extract

[8] = biological target: T8, HeLa cell extract proteins (Homo sapiens, UniProt P63208)
T8 construct: endogenous in cells; host or cells: HeLa cell extract

[9] = biological target: T9, HeLa cell extract proteins (Homo sapiens, UniProt Q14247)
T9 construct: endogenous in cells; host or cells: HeLa cell extract
T9 sequence (Q14247 1-550): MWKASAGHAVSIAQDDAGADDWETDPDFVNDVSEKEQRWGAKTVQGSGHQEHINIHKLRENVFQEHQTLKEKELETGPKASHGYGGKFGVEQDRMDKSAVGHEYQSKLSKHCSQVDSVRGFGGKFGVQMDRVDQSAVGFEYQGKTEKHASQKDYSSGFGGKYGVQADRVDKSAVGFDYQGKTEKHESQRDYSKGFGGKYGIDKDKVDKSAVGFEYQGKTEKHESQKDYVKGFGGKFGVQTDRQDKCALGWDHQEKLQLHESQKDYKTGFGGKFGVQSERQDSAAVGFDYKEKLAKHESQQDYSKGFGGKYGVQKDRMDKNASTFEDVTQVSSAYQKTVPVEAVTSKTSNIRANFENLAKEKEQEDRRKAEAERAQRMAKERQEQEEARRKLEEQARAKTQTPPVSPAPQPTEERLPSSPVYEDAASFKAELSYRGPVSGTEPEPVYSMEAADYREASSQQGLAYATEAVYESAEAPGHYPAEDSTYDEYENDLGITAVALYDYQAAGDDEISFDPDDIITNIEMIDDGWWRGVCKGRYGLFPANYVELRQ

[10] = biological target: T10, HeLa cell extract proteins (Homo sapiens, UniProt Q16658)
T10 construct: endogenous in cells; host or cells: HeLa cell extract

[11] = biological target: T11, HeLa cell extract proteins (Homo sapiens, UniProt Q3ZCQ8)
T11 construct: endogenous in cells; host or cells: HeLa cell extract

[12] = biological target: T12, HeLa cell extract proteins (Homo sapiens, UniProt Q5T4S7)
T12 construct: endogenous in cells; host or cells: HeLa cell extract

[13] = biological target: T13, HeLa cell extract proteins (Homo sapiens, UniProt Q9BT22)
T13 construct: endogenous in cells; host or cells: HeLa cell extract
T13 sequence (Q9BT22 1-464): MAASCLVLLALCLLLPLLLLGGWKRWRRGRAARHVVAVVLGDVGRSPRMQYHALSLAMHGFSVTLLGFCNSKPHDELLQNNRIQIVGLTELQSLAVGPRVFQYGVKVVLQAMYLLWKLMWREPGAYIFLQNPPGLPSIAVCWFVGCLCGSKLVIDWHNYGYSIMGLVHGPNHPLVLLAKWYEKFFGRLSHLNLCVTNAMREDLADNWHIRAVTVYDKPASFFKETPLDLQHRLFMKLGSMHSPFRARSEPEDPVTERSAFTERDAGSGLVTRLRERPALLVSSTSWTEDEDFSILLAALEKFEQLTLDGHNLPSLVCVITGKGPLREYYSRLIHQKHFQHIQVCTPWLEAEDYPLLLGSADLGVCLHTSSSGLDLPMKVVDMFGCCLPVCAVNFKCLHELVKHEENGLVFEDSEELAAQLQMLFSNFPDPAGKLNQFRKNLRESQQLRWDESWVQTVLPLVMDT

[14] = biological target: T14, HeLa cell extract proteins (Homo sapiens, UniProt Q9UBM7)
T14 construct: endogenous in cells; host or cells: HeLa cell extract
T14 sequence (Q9UBM7 1-475): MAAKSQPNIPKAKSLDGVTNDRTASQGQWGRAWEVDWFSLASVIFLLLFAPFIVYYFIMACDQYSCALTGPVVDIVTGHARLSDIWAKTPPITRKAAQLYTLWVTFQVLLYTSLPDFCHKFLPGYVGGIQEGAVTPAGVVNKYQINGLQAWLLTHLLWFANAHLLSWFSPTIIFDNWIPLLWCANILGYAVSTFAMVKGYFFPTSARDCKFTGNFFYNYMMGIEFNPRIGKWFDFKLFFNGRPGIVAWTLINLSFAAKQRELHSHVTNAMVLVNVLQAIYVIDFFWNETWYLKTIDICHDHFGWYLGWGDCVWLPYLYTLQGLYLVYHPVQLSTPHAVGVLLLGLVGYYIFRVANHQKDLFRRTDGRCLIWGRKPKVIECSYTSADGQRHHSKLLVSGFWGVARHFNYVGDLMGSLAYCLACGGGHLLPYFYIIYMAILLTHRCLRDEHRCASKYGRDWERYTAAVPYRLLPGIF

[15] = biological target: T15, HeLa cell extract proteins (Homo sapiens, UniProt Q9UL46)
T15 construct: endogenous in cells; host or cells: HeLa cell extract

[16] = biological target: T16, HeLa cell extract proteins (Homo sapiens, UniProt Q9Y233)
T16 construct: endogenous in cells; host or cells: HeLa cell extract

[17] = HeLa, protein LDHB (L-LACTATE DEH[…] CHAIN.)
[18] = HeLa, protein TALDO1 (TRANSALDOLASE.)

T16 sequence (Q9Y233 whole entry): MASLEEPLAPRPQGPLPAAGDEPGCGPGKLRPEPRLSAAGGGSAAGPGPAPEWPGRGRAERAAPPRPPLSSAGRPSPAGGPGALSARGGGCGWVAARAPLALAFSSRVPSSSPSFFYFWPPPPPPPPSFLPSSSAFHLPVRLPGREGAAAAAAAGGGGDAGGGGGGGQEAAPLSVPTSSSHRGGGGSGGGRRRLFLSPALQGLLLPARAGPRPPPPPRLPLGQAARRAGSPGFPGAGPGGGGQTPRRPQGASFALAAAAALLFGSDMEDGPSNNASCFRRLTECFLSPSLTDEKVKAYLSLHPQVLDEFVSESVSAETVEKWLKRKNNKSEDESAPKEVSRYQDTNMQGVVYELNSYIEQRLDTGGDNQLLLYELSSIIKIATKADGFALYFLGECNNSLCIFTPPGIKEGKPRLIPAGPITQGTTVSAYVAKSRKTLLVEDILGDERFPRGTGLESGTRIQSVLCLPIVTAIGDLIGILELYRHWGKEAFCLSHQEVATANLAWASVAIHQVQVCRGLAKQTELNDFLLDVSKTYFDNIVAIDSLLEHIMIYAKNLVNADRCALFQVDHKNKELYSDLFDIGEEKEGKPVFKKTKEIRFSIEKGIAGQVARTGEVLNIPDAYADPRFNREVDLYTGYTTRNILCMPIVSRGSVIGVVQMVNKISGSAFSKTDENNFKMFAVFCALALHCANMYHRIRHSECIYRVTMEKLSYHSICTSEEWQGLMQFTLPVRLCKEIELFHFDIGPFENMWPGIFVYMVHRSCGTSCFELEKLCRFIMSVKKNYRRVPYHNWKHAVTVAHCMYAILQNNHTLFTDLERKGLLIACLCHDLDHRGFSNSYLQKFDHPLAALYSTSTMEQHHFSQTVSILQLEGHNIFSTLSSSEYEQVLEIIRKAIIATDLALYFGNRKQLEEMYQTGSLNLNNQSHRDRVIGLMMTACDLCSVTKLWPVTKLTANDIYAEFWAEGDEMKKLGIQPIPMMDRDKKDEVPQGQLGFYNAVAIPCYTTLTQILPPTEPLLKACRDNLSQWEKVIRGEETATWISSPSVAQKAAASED
T2 sequence (O60884 whole entry): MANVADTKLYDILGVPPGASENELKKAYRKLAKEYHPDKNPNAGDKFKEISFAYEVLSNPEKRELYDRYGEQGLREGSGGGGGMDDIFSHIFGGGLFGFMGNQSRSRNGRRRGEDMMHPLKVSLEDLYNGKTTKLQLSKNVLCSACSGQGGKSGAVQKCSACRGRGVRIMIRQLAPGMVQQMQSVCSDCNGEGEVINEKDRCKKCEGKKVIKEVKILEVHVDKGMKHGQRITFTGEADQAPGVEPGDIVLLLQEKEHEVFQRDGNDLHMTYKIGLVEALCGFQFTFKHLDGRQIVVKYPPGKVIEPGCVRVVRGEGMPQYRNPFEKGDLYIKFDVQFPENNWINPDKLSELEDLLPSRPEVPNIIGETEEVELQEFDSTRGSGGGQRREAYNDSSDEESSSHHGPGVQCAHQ
T15 sequence (Q9UL46 whole entry): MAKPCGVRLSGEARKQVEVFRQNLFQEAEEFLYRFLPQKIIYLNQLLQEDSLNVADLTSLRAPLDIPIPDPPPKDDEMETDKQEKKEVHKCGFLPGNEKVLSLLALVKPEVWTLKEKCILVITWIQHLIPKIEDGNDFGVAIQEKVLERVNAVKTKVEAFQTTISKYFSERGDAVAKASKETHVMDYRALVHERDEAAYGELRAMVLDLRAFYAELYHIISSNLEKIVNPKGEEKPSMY
T3 sequence (O75947 whole entry): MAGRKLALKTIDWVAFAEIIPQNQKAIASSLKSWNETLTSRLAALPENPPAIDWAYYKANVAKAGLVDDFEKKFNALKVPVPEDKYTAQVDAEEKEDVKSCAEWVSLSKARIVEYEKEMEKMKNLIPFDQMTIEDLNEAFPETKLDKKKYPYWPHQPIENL
T11 sequence (Q3ZCQ8 45-353): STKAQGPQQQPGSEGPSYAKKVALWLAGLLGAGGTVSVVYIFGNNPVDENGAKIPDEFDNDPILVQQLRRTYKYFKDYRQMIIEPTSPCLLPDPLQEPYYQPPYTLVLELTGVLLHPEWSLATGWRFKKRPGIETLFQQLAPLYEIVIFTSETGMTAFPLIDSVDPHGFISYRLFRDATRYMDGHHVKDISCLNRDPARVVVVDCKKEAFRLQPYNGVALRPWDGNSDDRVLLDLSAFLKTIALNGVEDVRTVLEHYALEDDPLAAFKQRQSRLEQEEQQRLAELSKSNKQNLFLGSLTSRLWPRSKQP
T7 sequence (P55010 whole entry): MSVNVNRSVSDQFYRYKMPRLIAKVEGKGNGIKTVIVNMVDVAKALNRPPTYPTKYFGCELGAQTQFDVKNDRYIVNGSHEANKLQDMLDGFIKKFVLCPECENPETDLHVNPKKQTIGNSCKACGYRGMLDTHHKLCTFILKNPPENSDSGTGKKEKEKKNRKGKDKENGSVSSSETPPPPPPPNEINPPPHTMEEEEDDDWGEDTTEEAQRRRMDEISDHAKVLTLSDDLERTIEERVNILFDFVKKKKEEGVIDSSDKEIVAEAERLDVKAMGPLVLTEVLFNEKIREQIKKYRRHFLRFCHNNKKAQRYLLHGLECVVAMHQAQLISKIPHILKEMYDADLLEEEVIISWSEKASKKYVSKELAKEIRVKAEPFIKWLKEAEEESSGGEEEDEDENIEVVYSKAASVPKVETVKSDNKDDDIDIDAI
T1 sequence (O00408 whole entry): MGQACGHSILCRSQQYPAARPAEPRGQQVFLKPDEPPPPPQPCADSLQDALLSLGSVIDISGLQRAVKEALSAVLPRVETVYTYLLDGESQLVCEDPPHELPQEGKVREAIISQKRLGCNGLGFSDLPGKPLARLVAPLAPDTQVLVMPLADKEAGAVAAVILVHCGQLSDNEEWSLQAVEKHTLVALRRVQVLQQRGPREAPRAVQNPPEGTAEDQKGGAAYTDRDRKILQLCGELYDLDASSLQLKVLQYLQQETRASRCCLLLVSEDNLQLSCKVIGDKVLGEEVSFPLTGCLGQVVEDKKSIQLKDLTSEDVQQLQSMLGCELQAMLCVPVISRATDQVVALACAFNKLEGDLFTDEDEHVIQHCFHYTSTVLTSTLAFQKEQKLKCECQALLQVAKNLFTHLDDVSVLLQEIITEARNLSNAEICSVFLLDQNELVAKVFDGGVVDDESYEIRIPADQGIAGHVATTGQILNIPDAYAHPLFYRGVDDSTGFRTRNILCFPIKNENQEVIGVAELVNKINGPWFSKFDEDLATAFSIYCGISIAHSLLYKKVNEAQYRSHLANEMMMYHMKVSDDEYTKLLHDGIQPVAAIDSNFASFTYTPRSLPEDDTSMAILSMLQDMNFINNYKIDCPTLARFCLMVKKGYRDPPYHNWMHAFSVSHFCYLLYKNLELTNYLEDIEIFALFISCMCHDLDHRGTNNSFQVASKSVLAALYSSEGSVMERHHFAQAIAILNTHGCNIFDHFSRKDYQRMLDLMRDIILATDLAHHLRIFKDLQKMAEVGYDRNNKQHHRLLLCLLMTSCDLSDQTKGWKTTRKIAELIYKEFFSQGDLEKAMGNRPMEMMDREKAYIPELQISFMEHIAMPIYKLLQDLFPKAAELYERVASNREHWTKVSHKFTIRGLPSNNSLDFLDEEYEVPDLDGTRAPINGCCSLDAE
T5 sequence (P15104 whole entry): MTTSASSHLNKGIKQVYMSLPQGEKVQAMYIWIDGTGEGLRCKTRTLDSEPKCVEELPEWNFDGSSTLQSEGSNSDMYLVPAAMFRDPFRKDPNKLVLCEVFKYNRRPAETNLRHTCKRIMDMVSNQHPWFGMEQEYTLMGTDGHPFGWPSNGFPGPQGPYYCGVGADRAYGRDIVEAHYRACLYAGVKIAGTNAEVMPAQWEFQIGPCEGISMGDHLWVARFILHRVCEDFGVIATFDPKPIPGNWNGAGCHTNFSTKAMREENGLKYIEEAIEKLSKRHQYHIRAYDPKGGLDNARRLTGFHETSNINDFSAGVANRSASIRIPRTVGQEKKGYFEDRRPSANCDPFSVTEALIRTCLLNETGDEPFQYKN
T4 sequence (P07195 whole entry): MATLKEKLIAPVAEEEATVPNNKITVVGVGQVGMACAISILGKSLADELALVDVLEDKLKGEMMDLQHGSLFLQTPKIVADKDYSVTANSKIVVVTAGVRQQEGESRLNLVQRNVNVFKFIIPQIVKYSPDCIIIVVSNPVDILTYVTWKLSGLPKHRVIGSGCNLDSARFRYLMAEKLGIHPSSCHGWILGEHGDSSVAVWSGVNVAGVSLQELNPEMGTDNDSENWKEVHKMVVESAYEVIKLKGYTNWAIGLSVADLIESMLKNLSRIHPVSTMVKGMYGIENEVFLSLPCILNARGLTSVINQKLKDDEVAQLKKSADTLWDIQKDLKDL
T8 sequence (P63208 whole entry): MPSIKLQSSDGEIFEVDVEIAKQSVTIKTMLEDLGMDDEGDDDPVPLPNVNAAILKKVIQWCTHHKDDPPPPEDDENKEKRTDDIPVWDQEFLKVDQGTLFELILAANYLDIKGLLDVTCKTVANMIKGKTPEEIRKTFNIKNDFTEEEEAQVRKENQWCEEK

SMILES	fold changes relative to vehicle control ([1]; protein PDE2A, HeLa)	fold changes relative to vehicle control ([2]; protein DNAJA2, HeLa)	fold changes relative to vehicle control ([3]; protein ATP5H, HeLa)	fold changes relative to vehicle control [4, 17] [fold]	fold changes relative to vehicle control ([5]; captured protein GLUL, HeLa)	fold changes relative to vehicle control [6, 18] [fold]	fold changes relative to vehicle control [7]	fold changes relative to vehicle control ([8]; captured protein SKP1, HeLa)	fold changes relative to vehicle control ([9]; protein CTTN, HeLa)	fold changes relative to vehicle control ([10]; protein FSCN1, HeLa)	fold changes relative to vehicle control ([11]; captured protein TIMM50, HeLa)	fold changes relative to vehicle control ([12]; protein UBR4, HeLa)	fold changes relative to vehicle control ([13]; captured protein ALG1, HeLa)	fold changes relative to vehicle control ([14]; captured protein DHCR7, HeLa)	fold changes relative to vehicle control ([15]; protein PSME2, HeLa)	fold changes relative to vehicle control ([16]; captured protein PDE10A, HeLa)	fold changes relative to vehicle control ([3]; HeLa, captured protein ATP5H)	fold changes relative to vehicle control ([4]; HeLa, captured protein LDHB)	fold changes relative to vehicle control ([5]; HeLa, protein GLUL)	fold changes relative to vehicle control ([6]; protein TALDO1, HeLa)	also measured
Nc1nc2cccc(-c3ccccc3)c2n1Cc1ccc(Cl)c(Cl)c1 [compound 3]	0.64	0.95	0.94	0.94	0.88	0.83	0.91 fold	0.87	0.94	0.96	0.99	1.08	1.05	1.02	0.93	0.99	–	–	–	–	–
NCCOCCOCC(=O)Nc1nc2ncc(CNc3ccc(C(=O)NC(CCC(=O)O)C(=O)O)cc3)nc2c(=O)[nH]1 (centres unmarked) [compound 6]	0.79	1.01	–	–	–	–	–	–	–	1.42	–	0.42	–	–	–	–	0.92	1.42	0.81	1.22	fold changes relative to vehicle control ([7]; HeLa, captured protein EIF5): 1.64; fold changes relative to vehicle control ([8]; HeLa, captured protein SKP1): 0.97; fold changes relative to vehicle control ([9]; HeLa, captured protein CTTN): 1.06; fold changes relative to vehicle control ([11]; HeLa, protein TIMM50): 0.96; fold changes relative to vehicle control ([13]; HeLa, protein ALG1): 0.93; fold changes relative to vehicle control ([14]; HeLa, captured protein DHCR7): 0.96; fold changes relative to vehicle control ([15]; HeLa, protein PSME2): 0.95; fold changes relative to vehicle control ([16]; protein PDE10A, HeLa): 0.78
Nc1nc2[nH]cc(CCc3ccc(C(=O)N[C@@H](CCC(=O)O)C(=O)O)cc3)c2c(=O)[nH]1 [PTX, pemetrexed]	–	–	–	–	–	–	1.05	–	–	–	–	–	–	–	–	–	–	–	–	–	fold changes relative to vehicle control [1]: 0.71; fold changes relative to vehicle control [2]: 0.9; fold changes relative to vehicle control [3]: 1.03; fold changes relative to vehicle control [4]: 1.35; fold changes relative to vehicle control [5]: 0.84; fold changes relative to vehicle control [6]: 1.04; fold changes relative to vehicle control [8]: 1.13; fold changes relative to vehicle control [9]: 0.97; fold changes relative to vehicle control [10]: 1.08; fold changes relative to vehicle control [11]: 0.87; fold changes relative to vehicle control [12]: 0.94; fold changes relative to vehicle control [13]: 0.81; fold changes relative to vehicle control [14]: 0.98; fold changes relative to vehicle control [15]: 0.9; fold changes relative to vehicle control [16]: 0.66
Nc1nc2c(c(=O)[nH]1)N(C=O)C(CNc1ccc(C(=O)N[C@@H](CCC(=O)O)C(=O)O)cc1)CN2 (some centres unmarked) [LEU, leucovorin]	0.73	0.86	–	–	–	–	–	–	–	0.95	–	1.02	–	–	–	–	0.91	1.21	0.62	0.88	fold changes relative to vehicle control ([7]; HeLa, captured protein EIF5): 0.98; fold changes relative to vehicle control ([8]; HeLa, captured protein SKP1): 1.09; fold changes relative to vehicle control ([9]; HeLa, captured protein CTTN): 0.99; fold changes relative to vehicle control ([11]; HeLa, protein TIMM50): 0.9; fold changes relative to vehicle control ([13]; HeLa, protein ALG1): 0.85; fold changes relative to vehicle control ([14]; HeLa, captured protein DHCR7): 0.99; fold changes relative to vehicle control ([15]; HeLa, protein PSME2): 0.94; fold changes relative to vehicle control ([16]; protein PDE10A, HeLa): 1.01
CCCCCCOc1ccc(Cc2cnc(N)nc2N)cc1 [compound 1]	0.61	0.92	1.11	1.75	0.97	1.32	1.24 fold	1.04	1.04	1.28	1	1.14	0.88	0.95	1.01	0.96	–	–	–	–	–
